In US20240124466A1, “COMPOUNDS AND USE THEREOF FOR TREATMENT OF NEURODEGENERATIVE, DEGENERATIVE AND METABOLIC DISORDERS” (VOVA IDA THERAPEUTICS, INC., priority 2020, published 2024):

Tested on: PK1 neuroblastoma cells exposed to TPrP
Test: cells
Details: Neuroblastoma cell, 96 h, read-out: TPrP EC50

| SMILES | EC50 [nM] |
| --- | --- |
| Cc1ccc(-c2nnc(-c3ccccc3)[nH]2)cc1S(=O)(=O)N1CCN(C2COC2)CC1 [SR-32324, 1-((2-Methyl-5-(5-phenyl-4H-1,2,4-triazol-3-yl)phenyl)sulfonyl)-4-(oxetan-3-yl)piperazine] | 900 |
| Cc1ccc(-c2nnc(-c3ccccc3)[nH]2)cc1S(=O)(=O)N1CCOCC1C (stereo not drawn) [SR-32286, 3-Methyl-4-((2-methyl-5-(5-phenyl-4H-1,2,4-triazol-3-yl)phenyl)sulfonyl) morpholine] | 110 |
| O=S(=O)(c1cc(-c2nnc(-c3ccccc3)[nH]2)ccc1C1CC1)N1CCOCC1 [SR-29784, 4-((2-Cyclopropyl-5-(5-phenyl-4H-1,2,4-triazol-3-yl)phenyl)sulfonyl) morpholine] | 600 |
| Cc1ccc(-c2nnc(-c3ccccc3)[nH]2)cc1S(=O)(=O)N1CCC(O)(c2cccnc2)CC1 [SR-32924, 1-((2-Methyl-5-(5-phenyl-4H-1,2,4-triazol-3-yl)phenyl)sulfonyl)-4-(pyridin-3-yl)piperidin-4-ol] | > 1500 |
| COc1ccc(-c2nnc(-c3ccc(C)c(S(=O)(=O)N4CCOCC4)c3)[nH]2)cc1 [SR-28104, 4-((5-(5-(4-Methoxyphenyl)-4H-1,2,4-triazol-3-yl)-2-methylphenyl)sulfonyl) morpholine] | 15 |
| Cc1cc(C)c(S(=O)(=O)N2CCN(CCO)CC2)cc1-c1ccnc(Cl)c1 [SR-34951, 2-(4-((5-(2-Chloropyridin-4-yl)-2,4-dimethylphenyl)sulfonyl)piperazin-1-yl)ethan-1-ol] | 90 |
| Cc1ccc(-c2nnc(-c3ccccc3)[nH]2)cc1C(=O)N1CCOCC1 [SR-32044, (2-Methyl-5-(5-phenyl-4H-1,2,4-triazol-3-yl)phenyl)(morpholino)methanone] | ~1500 |
| Cc1ccc(-c2nnc(-c3ccccc3)[nH]2)cc1S(=O)(=O)N1CCOCC1CO (stereo not drawn) [SR-32945, (4-((2-Methyl-5-(5-phenyl-4H-1,2,4-triazol-3-yl)phenyl)sulfonyl)morpholin-3-yl)methanol] | 300 |
| O=S(=O)(c1ccc(-c2nnc(-c3ccccc3)[nH]2)cc1C(F)(F)F)N1CCOCC1 [SR-26444, 4-((4-(5-Phenyl-4H-1,2,4-triazol-3-yl)-2-(trifluoromethyl)phenyl)sulfonyl) morpholine] | > 320 |
| Cc1ccc(-c2nnc(-c3ccccc3)[nH]2)cc1S(=O)(=O)N1CCC2(CCCO2)CC1 [SR-32925, 8-((2-Methyl-5-(5-phenyl-4H-1,2,4-triazol-3-yl)phenyl)sulfonyl)-1-oxa-8-azaspiro[4.5]decane] | > 1500 |
| Cc1ccc(-c2ccnc(Cl)c2)cc1S(=O)(=O)N1CCN(CC(F)F)CC1 [SR-35124, 1-((5-(2-Chloropyridin-4-yl)-2-methylphenyl)sulfonyl)-4-(2,2-difluoroethyl) piperazine] | > 1500 |
| Cc1ccc(-c2nnc(-c3ccccc3)[nH]2)cc1S(=O)(=O)N1C[C@H]2COC[C@H]2C1 [SR-32404, (3aR,6aS)-5-((2-Methyl-5-(5-phenyl-4H-1,2,4-triazol-3-yl)phenyl)sulfonyl) hexahydro-1H-furo[3,4-c]pyrrole] | 800 |
| Cc1ccc(-c2ncc(-c3ccccc3)[nH]2)cc1S(=O)(=O)N1CCOCC1 [SR-28804, 4-((2-Methyl-5-(5-phenyl-1H-imidazol-2-yl)phenyl)sulfonyl)morpholine] | 400 |
| Cc1ccc(-c2ccnc(Cl)c2)cc1S(=O)(=O)N1CCNCC1 [SR-35422, 1-((5-(2-Chloropyridin-4-yl)-2-methylphenyl)sulfonyl)piperazine] | < 5 |
| Cc1ccc(-c2c[nH]cc2-c2ccccc2)cc1S(=O)(=O)N1CCOCC1 [SR-29285, 4-((2-Methyl-5-(4-phenyl-1H-pyrrol-3-yl)phenyl)sulfonyl)morpholine] | > 1200 |
| Cc1ccc(-c2nnc(-c3ccccc3)[nH]2)cc1S(=O)(=O)N1CCN(CCc2ccncc2)CC1 [SR-33364, 1-((2-Methyl-5-(5-phenyl-4H-1,2,4-triazol-3-yl)phenyl)sulfonyl)-4-(2-(pyridin-4-yl)ethyl)piperazine] | 5 |
| Cc1ccc(-c2ccnc(Cl)c2)cc1S(=O)(=O)N1CCN(CCCO)CC1 [SR-35129, 3-(4-((5-(2-Chloropyridin-4-yl)-2-methylphenyl)sulfonyl)piperazin-1-yl)propan-1-ol] | > 1500 |
| Cc1ccc(-c2ccnc(-c3ccc(F)cc3)c2)cc1S(=O)(=O)N1CCOCC1 [SR-28924, 4-((5-(2-(4-Fluorophenyl)pyridin-4-yl)-2-methylphenyl)sulfonyl)morpholine] | 40 |
| Cc1ccc(-c2ccnc(N3CCOCC3)c2)cc1S(=O)(=O)N1CC(O)C1 [SR-34464, 1-((2-Methyl-5-(2-morpholinopyridin-4-yl)phenyl)sulfonyl)azetidin-3-ol] | 300 |
| Cc1ccc(NCc2ccncc2)cc1S(=O)(=O)N1CCOCC1 [SR-25464, 4-Methyl-3-(morpholinosulfonyl)-N-(pyridin-4-ylmethyl)aniline] | > 320 |
| Cc1ccc(-c2cnn(C)c2)cc1S(=O)(=O)N1CCOCC1 [SR-24578] | 100 |
| Cc1cc(F)c(-c2ccnc(Cl)c2)cc1S(=O)(=O)N1CCN(CCO)CC1 [SR-35015, 2-(4-((5-(2-Chloropyridin-4-yl)-4-fluoro-2-methylphenyl)sulfonyl)piperazin-1-yl)ethan-1-ol] | 50 |
| O=S(=O)(c1cc(-c2nnc(-c3ccccc3)[nH]2)ccc1OC(F)(F)F)N1CCOCC1 [SR-31545, 4-((5-(5-Phenyl-4H-1,2,4-triazol-3-yl)-2-(trifluoromethoxy)phenyl)sulfonyl) morpholine] | > 1500 |
| Cc1ccc(-c2nnc(-c3ccccc3)s2)cc1S(=O)(=O)N1CCOCC1 [SR-27524, 4-((2-Methyl-5-(5-phenyl-1,3,4-thiadiazol-2-yl)phenyl)sulfonyl)morpholine] | 180 |
| Cc1ccc(-c2nnc(-c3ccc(Br)cc3)[nH]2)cc1S(=O)(=O)N1CCOCC1 [SR-28144, 4-((5-(5-(4-Bromophenyl)-4H-1,2,4-triazol-3-yl)-2-methylphenyl)sulfonyl) morpholine] | 40 |
| Cc1ccc(-c2nnc(-c3ccccc3)[nH]2)cc1S(=O)(=O)N1CCN(CCNC(=O)OC(C)(C)C)CC1 [SR-34024, tert-Butyl (2-(4-((2-methyl-5-(5-phenyl-4H-1,2,4-triazol-3-yl)phenyl)sulfonyl)piperazin-1-yl)ethyl)carbamate] | ~1500 |
| Cc1ccc(-c2nnc(-c3ccccc3)[nH]2)cc1S(=O)(=O)N1C2CCC1COC2 [SR-32704, 8-((2-Methyl-5-(5-phenyl-4H-1,2,4-triazol-3-yl)phenyl)sulfonyl)-3-oxa-8-azabicyclo[3.2.1]octane] | 800 |
| Cc1ccc(-c2nnc(-c3ccccc3)o2)cc1S(=O)(=O)N1CCOCC1 [SR-27558, 4-((2-Methyl-5-(5-phenyl-1,3,4-oxadiazol-2-yl)phenyl)sulfonyl)morpholine] | 140 |
| Cc1ccc(-c2ccn(-c3ccccc3)c2)cc1S(=O)(=O)N1CCOCC1 [SR-29084, 4-((2-Methyl-5-(1-phenyl-1H-pyrrol-3-yl)phenyl)sulfonyl)morpholine] | 600 |
| Cc1cc(C)c(S(=O)(=O)N2CCN(CCO)CC2)cc1-c1nnc(-c2ccccc2)[nH]1 [SR-34778, 2-(4-((2,4-Dimethyl-5-(5-phenyl-4H-1,2,4-triazol-3-yl)phenyl)sulfonyl)piperazin-1-yl)ethan-1-ol] | 13 |
